According to patent publication US20130315843A1, “COMPOSITION FOR REDUCTION OF TRPA1 AND TRPV1 SENSATIONS” (priority 2012, published 2013):
Several values for one entry are separate records, joined by “and”; a condition that tells them apart may be missing. Equal values may be shown once.

Tests used:
human TRPA1 = human TRPA1 (Homo sapiens, UniProt O75762); experiment: FLIPR intracellular Ca2+ assay, direct (agonist) effect on TRPA1; format: cell-based; parameters: expressed in transfected cells
Chain of human TRPA1 (O75762 whole entry): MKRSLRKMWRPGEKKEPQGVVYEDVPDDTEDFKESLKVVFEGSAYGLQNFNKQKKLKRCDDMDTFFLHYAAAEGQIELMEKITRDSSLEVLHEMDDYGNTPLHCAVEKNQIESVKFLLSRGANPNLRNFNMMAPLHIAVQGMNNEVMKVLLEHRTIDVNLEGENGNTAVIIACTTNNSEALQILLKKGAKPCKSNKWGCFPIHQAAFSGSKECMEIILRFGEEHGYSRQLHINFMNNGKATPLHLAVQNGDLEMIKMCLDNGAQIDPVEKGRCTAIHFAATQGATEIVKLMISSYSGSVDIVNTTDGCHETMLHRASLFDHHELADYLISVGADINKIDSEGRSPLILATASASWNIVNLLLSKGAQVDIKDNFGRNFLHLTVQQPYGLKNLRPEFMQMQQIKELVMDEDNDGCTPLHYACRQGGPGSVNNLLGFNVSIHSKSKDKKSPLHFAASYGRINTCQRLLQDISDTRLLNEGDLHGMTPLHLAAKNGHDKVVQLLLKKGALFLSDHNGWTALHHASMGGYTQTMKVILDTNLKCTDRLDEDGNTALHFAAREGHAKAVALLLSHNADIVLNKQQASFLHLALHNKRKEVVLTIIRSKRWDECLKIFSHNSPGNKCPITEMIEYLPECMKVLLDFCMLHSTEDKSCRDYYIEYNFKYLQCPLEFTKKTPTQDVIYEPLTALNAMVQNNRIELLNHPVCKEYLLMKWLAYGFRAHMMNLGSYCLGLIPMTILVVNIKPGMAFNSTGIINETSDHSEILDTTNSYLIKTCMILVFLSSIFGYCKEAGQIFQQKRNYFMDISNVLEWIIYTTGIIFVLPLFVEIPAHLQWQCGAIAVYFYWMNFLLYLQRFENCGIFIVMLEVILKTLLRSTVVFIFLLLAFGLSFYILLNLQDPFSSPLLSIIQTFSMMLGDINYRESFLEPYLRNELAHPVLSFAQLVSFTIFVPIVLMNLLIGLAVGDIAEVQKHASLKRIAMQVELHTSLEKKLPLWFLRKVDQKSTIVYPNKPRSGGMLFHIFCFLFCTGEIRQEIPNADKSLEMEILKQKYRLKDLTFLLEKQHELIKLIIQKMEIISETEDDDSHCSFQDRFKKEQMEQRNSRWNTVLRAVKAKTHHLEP
Description: After centrifugation, a pellet of cells was formed in the bottom of the tube separating them from the supernatant solution.
The pelleted cells were re-suspended in 10 ml assay buffer and 90 μl aliquots (˜50,000 cells) per well delivered to a 96-well assay plate containing 10 μl of test compounds (1 mM in assay buffer, final concentration 100 μM) or buffer control and incubated at room temperature for 30 minutes.

[1] = Headspace GC reduction of 1-propanethiol by protectant (Michael Acceptor) compounds; settings: for % Thiol Reduction: 0.1% sodium lauryl sulfate, 1% test compound, headspace; for Percent Thiol Reduction vs. Control: 0.1% SLS
Description: For EXAMPLES 11 and 12 a 0.1% sodium lauryl sulfate (SLS) aqueous solution was prepared to contain either 1 ppm or 10 ppm of 1-propanethiol. SLS solution was added to the sample and control solutions to assist in solubilization of the more hydrophobic compounds. Control solutions contained surfactant and 1-propanethiol, while sample solutions contained these components plus a protectant compound added at either 0.01% or 0.05%. 100 μL aliquots of control or test solutions were aliquotted into a 22 mL headspace vial, vortexed for 30 seconds, and incubated for 30 minutes at 60 C in an oven. After that period, 1 mL of head space was sampled and injected into an Agilent 7890 gas chromatograph equipped with a sulfur chemiluminescence detector (GC-SCD). Peak areas of the 1-propanethiol control sample (no protectant compound added) were established by triplicate injection of the control sample. The area of the propanethiol peak produced from samples containing selected protectant molecules were then determined and ratioed to the 1-propanethiol control peak area, subtracted from 1, and multiplied by 100 to calculate percent reduction of the thiol peak, thus indicating the effectiveness of each protectant at reducing the level of thiol.
The samples in TABLE 17 were prepared by combining 1 ppm 1-propanethiol with 0.1% sodium lauryl sulfate with 1% of the test compounds. The volatile sulfurs were measured with headspace GC/MS using a SPEME column to capture the volatile sulfur.
The samples in TABLE 18 were prepared by combining either 1 or 10 ppm 1-propanethiol with 0.1% sodium lauryl sulfate with either 0.01% or 0.05% of the test compounds.

[2] = Trained sensory panel, burn sensation after brushing with menthol dentifrice; format: in vivo, human; parameters: key: 0 = no burning to 60 = highest intensity; 7.5 difference = significant; settings: scale 0-60
Description: (§1) For EXAMPLES 6 and 7 sensory evaluation studies of menthol and hydrogen peroxide activity were conducted using a methodology patterned after the techniques described in M. C. Meilgaard, et al., Sensory Evaluation Techniques, 4th Ed. (2007). In one study, a panel of 8-15 trained sensory experts evaluated the menthol or peroxide sensations experienced after brushing with a dentifrice containing the menthol or hydrogen peroxide and the respective TRPA1 or TRPV1 antagonists. Panelists brushed teeth with 1.5 grams of a dentifrice (containing coolant) or control (no coolant) and then expectorated. After brush expectoration, panelists evaluated the burn intensity, assigning a number between 0 (no burning) to 60 ([…]). After rinse expectoration, panelists evaluated burning intensity according to the same 0 to 60 scale. Evaluations were conducted at 5, 15, 30, 45, 60 minute, etc. time points. At each evaluation, panelists were instructed to breathe in through pursed lips and evaluate overall burning sensation. In this test, a numerical score difference from the control of 7.5 indicates user significant differences or definite reduction in burning at the specified time point. Measures between 4.0 to 7.5 indicate a noticeable trend in the specified parameter, which is not statistically significant, but noticeable.
For EXAMPLE 6 (TABLES 8 and 9), a panel of 14 trained sensory experts evaluated the sensory profile experienced after brushing with the dentifrice sample formulations shown in TABLES 6 and 7 containing high levels of menthol followed by rinsing with water. Panelists brushed teeth with 1.5 grams of a test dentifrice (containing high menthol levels) or control (no menthol) for 36 seconds and then expectorated. The dentifrice sample formulations (control and high L-Menthol) are shown below in TABLE 6 (with peppermint flavor) and TABLE 7 (with spearmint flavor). The dentifrices were made using conventional methods and are shown below with component amounts in weight % of total composition. […]
For TABLE 10 all the Samples had the same formulation as Sample E from TABLE 6, except for the Control which lacked menthol. After brushing or mouthwash expectoration, panelists evaluated the burning sensation, assigning a number between 0 (no sensation) to 60 (highest intensity sensation). Evaluations were conducted at 5, 10, 20 and 30 minute time points, following expectoration. At each evaluation, panelists were instructed to breathe in through pursed lips and evaluate overall sensation. In this test, a numerical score of 7.5 indicates a significant user noticeable sensation. Differences less than 7.5, but greater than 5.0 indicate the trending of the data on a specific attribute.

[3] = Trained sensory panel, burning and numbing sensation after hydrogen peroxide mouthwash; format: in vivo, human; parameters: key to Burning Sensation: 0 = no sensation, 60 = highest intensity sensation; settings: scale 0-60
Description: as §1
For EXAMPLE 7, a panel of 10 trained sensory experts evaluated the sensory profile experienced after rinsing with 30 grams of a test mouthwash (containing hydrogen peroxide and TRPA1 or TRPV1 antagonist) or control (containing hydrogen peroxide and no TRPA1 or TRPV1 antagonist) for 30 seconds and then expectorated. After expectoration, panelists evaluated the sensorial profile (cooling, warming, burning, numbing, and astringency), assigning a number between 0 (no sensation) to 60 (highest intensity sensation). Evaluations were conducted at 2.5, 5, 10, 20, and 30 minute time points, following expectoration at each evaluation, panelists were instructed to breathe in through pursed lips and evaluate overall burning or numbing sensation. The hydrogen peroxide containing mouthwash formulations are shown below in TABLE 11. The mouthwash samples tested comprised a control having the components listed in TABLE 11 by weight % of the composition or the control formulation plus TRPA1 or TRPV1 antagonist, as shown in TABLE 12. The mouthwashes were made using conventional methods and are shown below with amounts in weight % of total composition.

human TRPV1 [4] = target: T1, human TRPV1 (Homo sapiens, UniProt Q8NER1); experiment: FLIPR Ca2+ assay, reduction of hydrogen peroxide activation of TRPV1; format: cell-based; parameters: expressed in transfected cells; settings: for Ca++ counts: with compound
T1 sequence (Q8NER1 whole entry): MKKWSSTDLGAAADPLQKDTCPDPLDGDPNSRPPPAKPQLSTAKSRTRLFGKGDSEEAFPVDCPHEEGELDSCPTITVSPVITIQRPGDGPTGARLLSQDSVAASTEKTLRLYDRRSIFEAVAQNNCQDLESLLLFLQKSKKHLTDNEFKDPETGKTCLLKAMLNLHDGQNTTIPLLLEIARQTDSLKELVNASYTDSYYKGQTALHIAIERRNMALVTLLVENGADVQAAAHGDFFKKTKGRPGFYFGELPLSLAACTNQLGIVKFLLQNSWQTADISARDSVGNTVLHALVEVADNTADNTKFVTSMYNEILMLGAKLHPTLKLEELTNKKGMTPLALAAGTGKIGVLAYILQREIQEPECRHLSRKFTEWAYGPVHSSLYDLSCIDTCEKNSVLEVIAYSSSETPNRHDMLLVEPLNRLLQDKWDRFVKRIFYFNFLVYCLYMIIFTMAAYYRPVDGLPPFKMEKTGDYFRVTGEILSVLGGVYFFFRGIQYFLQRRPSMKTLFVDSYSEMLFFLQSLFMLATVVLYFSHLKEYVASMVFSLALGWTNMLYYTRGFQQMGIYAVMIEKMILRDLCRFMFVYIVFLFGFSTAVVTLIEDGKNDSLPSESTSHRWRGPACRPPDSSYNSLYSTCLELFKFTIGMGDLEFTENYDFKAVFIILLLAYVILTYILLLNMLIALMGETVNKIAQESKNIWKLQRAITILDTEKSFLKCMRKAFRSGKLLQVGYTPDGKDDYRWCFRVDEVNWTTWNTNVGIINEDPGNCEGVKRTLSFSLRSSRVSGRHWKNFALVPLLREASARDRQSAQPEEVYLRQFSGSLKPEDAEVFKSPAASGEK
Description: (§2) Cells were detached with addition of 10 ml of PBS (phosphate buffered saline) by hand shaking gently. Cells were transferred to a 50 ml tube and centrifuged at 850 rpm for 3 minutes to remove PBS.
The pelleted cells were re-suspended in 10 ml assay buffer and 90 μl aliquots (˜50,000 cells) per well delivered to a 96-well assay plate containing 10 μl of test compounds (1 mM in assay buffer, […]) or buffer control and incubated at room temperature for 30 minutes.

human TRPV1 [5] = target: T1, human TRPV1; experiment: FLIPR Ca2+ assay, reduction of capsaicin activation of TRPV1; format: cell-based; parameters: expressed in transfected cells; settings: for Ca++ counts: with compound
Description: as §2
The pelleted cells were re-suspended in 10 ml assay buffer and 90 μl aliquots (˜50,000 cells) per well delivered to a 96-well assay plate containing 10 μl of test compounds ([…]) or buffer control and incubated at room temperature for 30 minutes.

[6] = 5 Min After Rinse, dentifrice Sample E (1% menthol) with antagonist levels as E42
[7] = 10 Min After Rinse, dentifrice Sample E (1% menthol) with antagonist levels as E42
[8] = 20 Min After Rinse, dentifrice Sample E (1% menthol) with antagonist levels as E42
[9] = 30 Min After Rinse, dentifrice Sample E (1% menthol) with antagonist levels as E42
[10] = After Expectoration, dentifrice Sample E (1% added menthol) with Apritone 200 ppm, Dihydrojasmone 6 ppm, Isobornyl Isobutyrate 100 ppm, α-heptyl-γ-valerolactone 100 ppm as named
[11] = After Rinse, dentifrice Sample E (1% menthol) with antagonist levels as E42
[12] = 2 Min 30 SEC After Expectoration, H2O2 mouthwash, antagonist levels as E48
[13] = 5 Min After Expectoration, H2O2 mouthwash, antagonist levels as E48
[14] = 10 Min After Expectoration, H2O2 mouthwash, antagonist levels as E48
[15] = 20 Min After Expectoration, H2O2 mouthwash, antagonist levels as E48
[16] = 30 Min After Expectoration, H2O2 mouthwash, antagonist levels as E48
[17] = After Expectoration, H2O2 mouthwash, antagonist levels as E48
[18] = Initial in Mouth, hydrogen peroxide mouthwash (TABLE 11) with Apritone 200 ppm, Isobornyl Isobutyrate 100 ppm, Dihydrojasmone 6 ppm as named, 10 panelists
[19] = 1 ppm 1-propanethiol, 0.01% test compound
[20] = 1 ppm 1-propanethiol, 0.05% test compound
[21] = 10 ppm 1-propanethiol, 0.01% test compound
[22] = 10 ppm 1-propanethiol, 0.05% test compound

| SMILES | % Thiol Reduction ([1]; 1 ppm 1-propanethiol) | Burning Sensation Rating [2, 6] | Burning Sensation Rating [2, 7] | Burning Sensation Rating [2, 8] | Burning Sensation Rating [2, 9] | Burning Sensation Rating [2, 10] | Burning Sensation Rating [2, 11] | Burning Sensation [3, 12] | Numbing Sensation [3, 12] | Burning Sensation [3, 13] | Numbing Sensation [3, 13] | Burning Sensation [3, 14] | Numbing Sensation [3, 14] | Burning Sensation [3, 15] | Numbing Sensation [3, 15] | Burning Sensation [3, 16] | Numbing Sensation [3, 16] | Burning Sensation [3, 17] | Numbing Sensation [3, 17] | Burning Sensation [3, 18] | other results |
| --- | --- | --- | --- | --- | --- | --- | --- | --- | --- | --- | --- | --- | --- | --- | --- | --- | --- | --- | --- | --- | --- |
| C=CCN=C=S [AITC, allyl isothiocyanate] | – | – | – | – | – | – | – | – | – | – | – | – | – | – | – | – | – | – | – | – | Average Ca++ Counts (human TRPA1; AITC 50 μM alone, each Set 1-4): 8322.5 Counts and 14138.2 Counts and 15213.0 Counts and 11209.0 Counts; Ca2+ Count, TRPA1 (human TRPA1; control agonist AITC 50 μM): 12219 Count |
| CC(=O)c1ccc[nH]1 [Acetylpyrrole] | 37.3% | – | – | – | – | – | – | – | – | – | – | – | – | – | – | – | – | – | – | – | – |
| CC(C)=CCC/C(C)=C/CC1CCCC1=O (stereo not drawn) [Apritone] | – | 13.3 | 5.3 | 0.0 | 0.0 | 27.4 | 24.0 | 20.8 | 12.4 | 16.0 | 10.1 | 8.6 | 6.0 | 3.3 | 4.2 | 1.3 | 0.8 | 21.9 | 11.6 | 12.6 | % inhibition of TRPV1 activation by 500 uM H2O2 (human TRPV1 [4]; Dose 1000): 96%; % Reduction of Hydrogen Peroxide TRPV1 Activation (human TRPV1 [4]; antagonist 100 μM against 500 μM hydrogen peroxide): 96%; Ca++ counts (human TRPV1 [4]; Dose 1000, 500 uM H2O2): 66; % inhibition of TRPV1 activation by 350 nM Capsaicin (human TRPV1 [5]; Dose 1000): 10%; Ca++ counts (human TRPV1 [5]; Dose 1000, 350 nM Capsaicin): 13526 |
| O=C/C=C/c1ccccc1 [Cinnamic aldehyde] | – | – | – | – | – | – | – | – | – | – | – | – | – | – | – | – | – | – | – | – | Percent Thiol Reduction vs. Control [1, 19]: 36.8%; Percent Thiol Reduction vs. Control [1, 20]: 52.4%; Percent Thiol Reduction vs. Control [1, 21]: −10.0%; Percent Thiol Reduction vs. Control [1, 22]: −5.7% |
| CCCCCC1=C(C)CCC1=O [Dihydrojasmone] | significantly or completely reduced sulfur production | 11.3 | 2.5 | 0.0 | 0.0 | 24.1 | 21.3 | 13.1 | 6.9 | 8.9 | 6.3 | 2.8 | 0.8 | 0.8 | 0.0 | 0.6 | 0.0 | 16.9 | 6.9 | 12.5 | Percent Thiol Reduction vs. Control [1, 19]: 79.0%; Percent Thiol Reduction vs. Control [1, 20]: 92.1%; thiol reduction, comparison in words ([1]; 1 ppm 1-propanethiol, compound 0.01% and 0.05%): better reduction in thiol than delta damascone; Percent Thiol Reduction vs. Control [1, 21]: 41.3%; Percent Thiol Reduction vs. Control [1, 22]: 66.7%; thiol reduction, comparison in words ([1]; 10 ppm 1-propanethiol, compound 0.05%): close to delta damascone's thiol reduction; % inhibition of TRPV1 activation by 500 uM H2O2 (human TRPV1 [4]; Dose 4000): 98%; % Reduction of Hydrogen Peroxide TRPV1 Activation (human TRPV1 [4]; antagonist 400 μM against 500 μM hydrogen peroxide): 98%; Ca++ counts (human TRPV1 [4]; Dose 4000, 500 uM H2O2): 38; % inhibition of TRPV1 activation by 350 nM Capsaicin (human TRPV1 [5]; Dose 4000): 4%; Ca++ counts (human TRPV1 [5]; Dose 4000, 350 nM Capsaicin): 11397 |
| CCc1occc(=O)c1O [Ethyl maltol] | −17.2% | – | – | – | – | – | – | – | – | – | – | – | – | – | – | – | – | – | – | – | – |
